The values below are quoted from earlier work in patent publication US20210000842A1, “TETRACYCLINE MANAGEMENT OF EGFR INHIBITOR ASSOCIATED DERMATOSES” (Foamix Pharmaceuticals Ltd., priority 2015, published 2021).

One data set has as its system mouse. The note with it: cited from earlier work.
The test system of data set [1] is patients treated with EGFR inhibitors. The note with it: patients treated with the EGFR inhibitor (Erlotinib 150 mg QD); cited from earlier work.
In data set [2] the test system is EGFR inhibitor-induced rash. The conditions noted are these: cited from earlier work.
For data set [3] the following is noted: cited from earlier work.

With `C[C@H]1c2cccc(O)c2C(=O)C2=C(O)[C@]3(O)C(=O)C(C(N)=O)=C(O)[C@@H](N(C)C)[C@@H]3[C@@H](O)[C@@H]21` [Doxycycline, doxycycline], the “Oral acute toxicity LD50” value in the data set on mouse was 1007 mg/kg.

On to `C#Cc1cccc(Nc2ncnc3cc(OCCOC)c(OCCOC)cc23)c1` [Erlotinib], for which, in data set [1], the “Patients who developed a grade 3 rash” value is reported as 9% and the “Patients who developed a rash in all grades” value is 75%.

As for `CC[C@@H]1/C=C(\C)C[C@H](C)C[C@H](OC)[C@H]2O[C@@](O)(C(=O)C(=O)N3CCCC[C@H]3C(=O)O[C@H](/C(C)=C/[C@@H]3CC[C@H](Cl)[C@H](OC)C3)[C@H](C)[C@@H](O)CC1=O)[C@H](C)C[C@@H]2OC` [pimecrolimus], the “Lesion counts on treated side of the face” value in data set [2] (half face study, cetuximab, after 2 weeks) was “significantly less”.

Consider `CCOC(=O)c1ccc(C#Cc2ccc3c(c2)C(C)(C)CCS3)nc1` [tazarotene, Ethyl 6-[2-(4,4-dimethylthiochroman-6-yl)ethynyl] nicotinate], for which, in data set [2] (cream twice a day), the “Clinical benefit on EGFR inhibitor-induced rash” value was “no observed clinical benefit” and the “Patients in whom the rash was assessed as more severe” value is 10%.

On to Doxycycline hyclate, for which, in data set [3], the Lipid solubility result is on record as “high degree” and the Solubility in water entry is “soluble”.
